Test results published in PubChem BioAssay AID2060508 (Molecular Pharmacology Branch, DTP, NCI, 2025).

Test system: 454973-116-R2-J3-PDC spheroids, viability, % test/control
Assay: Anticancer human tumor 454973-116-R2-J3-PDC patient-derived pancreatic carcinoma cell line growth inhibition [GQUAD]
Settings: spheroids with HUVEC and MSC; for IC50: curve of first compound; for viability, T/C: stronger effect = lower value
How it was run: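 Viability of tumor cells grown as complex spheroids with endothelial and stromal cells, exposed to drug combinations. Top concentration at or near clinical Cmax (else 10 microM), diluted in half-log increments.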

[1] = second compound 0.0316 µM, first compound 0.0316 µM
[2] = second compound 0.0316 µM, first compound 0.1 µM
[3] = second compound 0.0316 µM, first compound 0.316 µM
[4] = second compound 0.0316 µM, first compound 1 µM
[5] = second compound 0.0316 µM, first compound 3.16 µM
[6] = second compound 0.0316 µM, first compound 10 µM
[7] = second compound 0.1 µM, first compound 0.0316 µM
[8] = second compound 0.1 µM, first compound 0.1 µM
[9] = second compound 0.1 µM, first compound 0.316 µM
[10] = second compound 0.1 µM, first compound 1 µM
[11] = second compound 0.1 µM, first compound 3.16 µM
[12] = second compound 0.1 µM, first compound 10 µM
[13] = second compound 0.316 µM, first compound 0.0316 µM
[14] = second compound 0.316 µM, first compound 0.1 µM
[15] = second compound 0.316 µM, first compound 0.316 µM
[16] = second compound 0.316 µM, first compound 1 µM
[17] = second compound 0.316 µM, first compound 3.16 µM
[18] = second compound 0.316 µM, first compound 10 µM
[19] = second compound 1 µM, first compound 0.0316 µM
[20] = second compound 1 µM, first compound 0.1 µM
[21] = second compound 1 µM, first compound 0.316 µM
[22] = second compound 1 µM, first compound 1 µM
[23] = second compound 1 µM, first compound 3.16 µM
[24] = second compound 1 µM, first compound 10 µM
[25] = second compound 3.16 µM, first compound 0.0316 µM
[26] = second compound 3.16 µM, first compound 0.1 µM
[27] = second compound 3.16 µM, first compound 0.316 µM
[28] = second compound 3.16 µM, first compound 1 µM
[29] = second compound 3.16 µM, first compound 3.16 µM
[30] = second compound 3.16 µM, first compound 10 µM
[31] = second compound 10 µM, first compound 0.0316 µM
[32] = second compound 10 µM, first compound 0.1 µM
[33] = second compound 10 µM, first compound 0.316 µM
[34] = second compound 10 µM, first compound 1 µM
[35] = second compound 10 µM, first compound 3.16 µM
[36] = second compound 10 µM, first compound 10 µM
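Also: spheroids exposed to compounds for seven days.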
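For viability, T/C in this document: 100% = DMSO vehicle control viability.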

C#Cc1c(F)ccc2cc(O)cc(-c3ncc4c(N5CC6CCC(C5)N6)nc(OCC56CCCN5CC(F)C6)nc4c3F)c12 (stereo unspecified) + CN(C)c1ccc(Nc2c3ccc(NC(=O)CCN4CCCC4)cc3nc3cc(NC(=O)CCN4CCCC4)ccc23)cc1
IC50 (second compound 0.0316 µM): 41.7 nM
IC50 (second compound 0.1 µM): 52.3 nM
IC50 (second compound 0.316 µM): 31.8 nM
IC50 (second compound 1 µM): < 31.6 nM
IC50 (second compound 3.16 µM): 39.7 nM
IC50 (second compound 10 µM): < 31.6 nM
viability, T/C [1]: 54.1%
viability, T/C [2]: 37.5%
viability, T/C [3]: 28.1%
viability, T/C [4]: 20.2%
viability, T/C [5]: 20.2%
viability, T/C [6]: 15.8%
viability, T/C [7]: 56.4%
viability, T/C [8]: 41.9%
viability, T/C [9]: 24.3%
viability, T/C [10]: 22.4%
viability, T/C [11]: 21.2%
viability, T/C [12]: 16.9%
viability, T/C [13]: 50%
viability, T/C [14]: 35.7%
viability, T/C [15]: 23%
viability, T/C [16]: 21.4%
viability, T/C [17]: 17.4%
viability, T/C [18]: 15.7%
viability, T/C [19]: 49.4%
viability, T/C [20]: 33.1%
viability, T/C [21]: 26.9%
viability, T/C [22]: 16.9%
viability, T/C [23]: 18.6%
viability, T/C [24]: 18%
viability, T/C [25]: 53.8%
viability, T/C [26]: 36%
viability, T/C [27]: 26.9%
viability, T/C [28]: 23%
viability, T/C [29]: 21.3%
viability, T/C [30]: 12.1%
viability, T/C [31]: 44.9%
viability, T/C [32]: 26.7%
viability, T/C [33]: 17.5%
viability, T/C [34]: 13.4%
viability, T/C [35]: 3.6%
viability, T/C [36]: 0.44%

CC(=O)O[C@H]1C(=O)[C@@]2(C)[C@H]([C@H](OC(=O)c3ccccc3)[C@]3(O)C[C@H](OC(=O)[C@H](O)[C@@H](NC(=O)c4ccccc4)c4ccccc4)C(C)=C1C3(C)C)[C@]1(OC(C)=O)CO[C@@H]1C[C@@H]2O + CN(C)c1ccc(Nc2c3ccc(NC(=O)CCN4CCCC4)cc3nc3cc(NC(=O)CCN4CCCC4)ccc23)cc1
IC50 (second compound 0.0316 µM): < 31.6 nM
IC50 (second compound 0.1 µM): < 31.6 nM
IC50 (second compound 0.316 µM): < 31.6 nM
IC50 (second compound 1 µM): < 31.6 nM
IC50 (second compound 3.16 µM): < 31.6 nM
IC50 (second compound 10 µM): < 31.6 nM
viability, T/C [1]: 16.5%
viability, T/C [2]: 8.43%
viability, T/C [3]: 9.5%
viability, T/C [4]: 7.36%
viability, T/C [5]: 8.24%
viability, T/C [6]: 10.1%
viability, T/C [7]: 16%
viability, T/C [8]: 11.7%
viability, T/C [9]: 7.58%
viability, T/C [10]: 6.11%
viability, T/C [11]: 8.15%
viability, T/C [12]: 7.98%
viability, T/C [13]: 14%
viability, T/C [14]: 10%
viability, T/C [15]: 8.64%
viability, T/C [16]: 7.04%
viability, T/C [17]: 8.84%
viability, T/C [18]: 10.1%
viability, T/C [19]: 16%
viability, T/C [20]: 8.67%
viability, T/C [21]: 6.76%
viability, T/C [22]: 7.25%
viability, T/C [23]: 6.69%
viability, T/C [24]: 9.71%
viability, T/C [25]: 15.5%
viability, T/C [26]: 9.08%
viability, T/C [27]: 8.56%
viability, T/C [28]: 6.91%
viability, T/C [29]: 6.53%
viability, T/C [30]: 8.28%
viability, T/C [31]: 21.6%
viability, T/C [32]: 12.1%
viability, T/C [33]: 8.85%
viability, T/C [34]: 7.09%
viability, T/C [35]: 8.15%
viability, T/C [36]: 8.56%

CCCS(=O)(=O)Nc1ccc(F)c(C(=O)c2c[nH]c3ncc(-c4ccc(Cl)cc4)cc23)c1F + CN(C)c1ccc(Nc2c3ccc(NC(=O)CCN4CCCC4)cc3nc3cc(NC(=O)CCN4CCCC4)ccc23)cc1
IC50 (second compound 0.0316 µM): 5410 nM
IC50 (second compound 0.1 µM): 6130 nM
IC50 (second compound 0.316 µM): 6150 nM
IC50 (second compound 1 µM): 5520 nM
IC50 (second compound 3.16 µM): 5440 nM
IC50 (second compound 10 µM): 3720 nM
viability, T/C [1]: 108%
viability, T/C [2]: 104%
viability, T/C [3]: 114%
viability, T/C [4]: 110%
viability, T/C [5]: 85%
viability, T/C [6]: 10%
viability, T/C [7]: 103%
viability, T/C [8]: 98%
viability, T/C [9]: 103%
viability, T/C [10]: 123%
viability, T/C [11]: 106%
viability, T/C [12]: 8.55%
viability, T/C [13]: 98.5%
viability, T/C [14]: 101%
viability, T/C [15]: 108%
viability, T/C [16]: 105%
viability, T/C [17]: 102%
viability, T/C [18]: 11.7%
viability, T/C [19]: 88.1%
viability, T/C [20]: 94.3%
viability, T/C [21]: 104%
viability, T/C [22]: 87.9%
viability, T/C [23]: 85.1%
viability, T/C [24]: 12.6%
viability, T/C [25]: 90%
viability, T/C [26]: 74.1%
viability, T/C [27]: 101%
viability, T/C [28]: 89.5%
viability, T/C [29]: 82.4%
viability, T/C [30]: 13.5%
viability, T/C [31]: 68.3%
viability, T/C [32]: 70%
viability, T/C [33]: 80.3%
viability, T/C [34]: 67.2%
viability, T/C [35]: 57.9%
viability, T/C [36]: 4.49%
